# Data reported in US12583861B2, “Derivatives of imidazo[4,5-d]pyridazine, their preparation and their therapeutic application” (SANOFI, priority 2021, dated 2026).
# pEC50: −log10 of the molar value. Structures can show the parent of a compound that is named as a salt.
# Tests used:
# human TLR8 = molecular target: T1, human TLR8 (Homo sapiens, UniProt Q9NR97); test: HEK-Blue hTLR8 reporter cell assay (SEAP, NF-kB/AP-1) for stimulation of human TLR8; type: cell-based; conditions: HEK-Blue hTLR8 cells; for pEC50: 24 h incubation, SEAP readout, read-out: TLR8_EC50; for activation at 20 µM: 24 h, at 20000 nM
# T1 construct: host or cells: HEK293 (HEK-Blue hTLR8)
# T1 sequence (Q9NR97 27-1041): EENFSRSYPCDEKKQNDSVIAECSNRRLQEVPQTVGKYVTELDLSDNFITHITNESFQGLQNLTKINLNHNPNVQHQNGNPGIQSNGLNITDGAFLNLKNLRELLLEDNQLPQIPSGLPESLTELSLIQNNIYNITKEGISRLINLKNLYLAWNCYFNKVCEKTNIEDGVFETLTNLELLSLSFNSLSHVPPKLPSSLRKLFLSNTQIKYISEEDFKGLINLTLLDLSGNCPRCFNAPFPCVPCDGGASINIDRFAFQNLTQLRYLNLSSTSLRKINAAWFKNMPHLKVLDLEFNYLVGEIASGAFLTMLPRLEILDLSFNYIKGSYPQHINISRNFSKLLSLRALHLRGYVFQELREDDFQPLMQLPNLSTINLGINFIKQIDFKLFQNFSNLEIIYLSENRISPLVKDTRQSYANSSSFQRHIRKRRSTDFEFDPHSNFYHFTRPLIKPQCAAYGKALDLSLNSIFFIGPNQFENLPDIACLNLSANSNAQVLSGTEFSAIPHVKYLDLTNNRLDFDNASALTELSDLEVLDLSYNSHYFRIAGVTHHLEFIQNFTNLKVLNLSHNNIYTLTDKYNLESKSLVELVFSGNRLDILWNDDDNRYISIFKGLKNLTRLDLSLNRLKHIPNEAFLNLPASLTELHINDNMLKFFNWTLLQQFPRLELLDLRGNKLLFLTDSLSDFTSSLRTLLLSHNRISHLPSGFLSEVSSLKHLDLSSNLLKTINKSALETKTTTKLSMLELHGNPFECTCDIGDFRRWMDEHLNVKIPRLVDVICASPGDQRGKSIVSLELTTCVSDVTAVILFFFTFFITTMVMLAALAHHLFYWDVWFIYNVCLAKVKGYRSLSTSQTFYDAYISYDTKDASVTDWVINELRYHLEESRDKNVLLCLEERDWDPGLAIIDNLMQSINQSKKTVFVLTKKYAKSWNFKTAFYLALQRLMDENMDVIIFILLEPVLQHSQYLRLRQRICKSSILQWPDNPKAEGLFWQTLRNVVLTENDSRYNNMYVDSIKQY
# Summary of the method: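 HEK293 cells carrying hTLR8 and a SEAP reporter driven by NF-κB/AP-1 sites were seeded at 3.10E4 cells/well and held 18 to 24 h at 37° C., 5% CO2 before compound addition. Supernatant SEAP measured with QUANTI-Blue™.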
# human TLR7 = molecular target: T2, human TLR7 (Homo sapiens, UniProt Q9NYK1); test: HEK-Blue hTLR7 reporter cell assay (SEAP, NF-kB/AP-1) for stimulation of human TLR7; type: cell-based; conditions: HEK-Blue hTLR7 cells; for pEC50: 24 h incubation, SEAP readout, read-out: TLR7_EC50; for activation at 20 µM: 24 h, at 20000 nM
# T2 construct: host or cells: HEK293 (HEK-Blue hTLR7)
# T2 sequence (Q9NYK1 27-1049): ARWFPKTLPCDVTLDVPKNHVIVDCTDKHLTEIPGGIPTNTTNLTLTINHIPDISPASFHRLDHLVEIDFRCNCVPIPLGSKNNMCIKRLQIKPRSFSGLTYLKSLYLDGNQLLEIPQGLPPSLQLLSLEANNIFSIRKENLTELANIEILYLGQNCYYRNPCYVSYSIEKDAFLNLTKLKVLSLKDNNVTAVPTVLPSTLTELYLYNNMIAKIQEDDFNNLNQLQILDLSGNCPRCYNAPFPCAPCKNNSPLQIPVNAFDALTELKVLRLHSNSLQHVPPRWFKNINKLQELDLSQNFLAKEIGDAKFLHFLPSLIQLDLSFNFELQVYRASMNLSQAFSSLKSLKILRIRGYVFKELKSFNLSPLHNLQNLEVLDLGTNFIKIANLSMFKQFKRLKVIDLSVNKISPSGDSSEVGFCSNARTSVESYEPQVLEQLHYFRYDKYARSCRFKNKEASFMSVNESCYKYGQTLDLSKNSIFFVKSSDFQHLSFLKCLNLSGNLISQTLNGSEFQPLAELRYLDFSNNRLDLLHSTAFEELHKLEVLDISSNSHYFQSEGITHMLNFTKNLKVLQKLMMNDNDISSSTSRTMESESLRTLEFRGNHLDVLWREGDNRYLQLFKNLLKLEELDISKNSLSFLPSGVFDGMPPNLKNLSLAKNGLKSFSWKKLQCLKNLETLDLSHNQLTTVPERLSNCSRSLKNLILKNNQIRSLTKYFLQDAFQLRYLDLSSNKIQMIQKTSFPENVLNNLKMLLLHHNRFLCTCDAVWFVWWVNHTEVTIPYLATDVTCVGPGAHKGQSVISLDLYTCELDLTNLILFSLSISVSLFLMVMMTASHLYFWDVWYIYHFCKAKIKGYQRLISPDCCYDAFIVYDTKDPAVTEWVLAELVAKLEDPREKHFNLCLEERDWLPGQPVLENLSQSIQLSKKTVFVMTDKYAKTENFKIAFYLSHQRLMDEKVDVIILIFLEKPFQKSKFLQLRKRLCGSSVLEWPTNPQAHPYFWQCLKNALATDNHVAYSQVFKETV
# Summary of the method: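 HEK293 cells expressing hTLR7 with NF-κB/AP-1-driven SEAP reporter, seeded 3.10E4 cells/well, pre-incubated 18–24 h, then exposed to 3-fold compound dilutions (0.01–20 μM) for 24 h at 37 °C. Supernatant SEAP read with QUANTI-Blue; EC50 as concentration giving 50% activation.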
pEC50 (human TLR8),pEC50 (human TLR7),activation at 20 µM (human TLR8) [%],activation at 20 µM (human TLR7) [%],SMILES
< 4.70,7.29,–,–,"CCCCc1nc2c(N)nnc(CCC(C)C)c2n1C[C@H]1CC[C@H](CN)CC1 [Compound 138, 1-(((1R,4R)-4-(aminomethyl)cyclohexyl)methyl)-2-butyl-7-isopentyl-1H-imidazo[4,5-d]pyridazin-4-amine]"
< 4.70,5.32,–,–,"CCCCc1nc2c(N)nnc(OC3CCS(=O)(=O)C3)c2n1Cc1ccc(OC)cc1 (stereo not drawn) [Compound 68, 3-((4-amino-2-butyl-1-(4-methoxybenzyl)-1H-imidazo[4,5-d]pyridazin-7-yl)oxy)tetrahydrothiophene 1,1-dioxide]"
< 4.70,6.94,–,–,"CCCCc1nc2c(N)nnc(OC(C)C)c2n1Cc1ccc(CNCCOCCOCCOCCOCCOCCOC)cc1 [Compound 105, 2-butyl-4-isopropoxy-3-[[4-[[2-[2-[2-[2-[2-(2-methoxyethoxy)ethoxy]ethoxy]ethoxy]ethoxy]ethylamino]methyl]phenyl]methyl]imidazo[4,5-d]pyridazin-7-amine]"
< 4.70,5.51,–,–,"CCCCc1nc2c(N)nnc(-c3ccc[nH]3)c2n1Cc1ccc(OC)cc1 [Compound 64, 2-butyl-1-(4-methoxybenzyl)-7-(1H-pyrrol-2-yl)-1H-imidazo[4,5-d]pyridazin-4-amine hydrochloride]"
< 4.70,7.07,–,–,"CCCCc1nc2c(N)nnc(OC(C)C)c2n1Cc1ccc(CNC(C)=O)cc1 [Compound 28, N-(4-((4-amino-2-butyl-7-isopropoxy-1H-imidazo[4,5c]pyridazin-1-yl)methyl)benzyl)acetamide]"
< 4.70,6.49,–,–,"CCCCc1nc2c(N)nnc(C3CCCC3)c2n1Cc1ccc(OC)cc1 [Compound 16, 2-butyl-7-cyclopentyl-1-(4-methoxybenzyl)-1H-imidazo[4,5-d]pyridazin-4-amine]"
5.98,7.12,–,–,"CCCCc1nc2c(N)nnc(OC(C)C)c2n1Cc1cccc(CNC2(C)CCC2)c1 [Compound 130, 2-butyl-7-isopropoxy-1-(3-(((1-methylcyclobutyl)amino)methyl)benzyl)-1H-imidazo[4,5-d]pyridazin-4-amine dihydrochloride salt]"
–,< 4.70,22.7,–,"CCCCc1nc2c(N)nnc(-c3cc[nH]n3)c2n1Cc1ccc(OC)cc1 [Compound 96, 2-butyl-1-(4-methoxybenzyl)-7-(1H-pyrazol-3-yl)-1H-imidazo[4,5-d]pyridazin-4-amine]"
6.64,6.75,–,–,"CCCCc1nc2c(N)nnc(OC(C)C)c2n1Cc1cccc(CNC)c1 [Compound 124, 2-butyl-7-isopropoxy-1-(3-((methylamino)methyl)benzyl)-1H-imidazo[4,5-d]pyridazin-4-amine]"
–,–,15.4,16.7,"CCCNc1nc2c(N)nnc(OC(C)C)c2n1Cc1ccc(CN)cc1 [Compound 163, 3-[[4-(aminomethyl)phenyl]methyl]-4-isopropoxy-N2-propyl-imidazo[4,5-d]pyridazine-2,7-diamine]"
–,5.10,15,–,"CCCCc1nc2c(N)nnc(-c3ccccc3)c2n1Cc1ccc(OC)cc1 [Compound 92, 2-butyl-1-(4-methoxybenzyl)-7-phenyl-1H-imidazo[4,5-d]pyridazin-4-amine]"
4.75,6.23,–,–,"CCCCc1nc2c(N)nnc(OC(C)C)c2n1Cc1cccnc1 [Compound 74, 2-butyl-7-isopropoxy-1-(pyridin-3-ylmethyl)-1H-imidazo[4,5-d]pyridazin-4-amine]"
< 4.70,5.87,–,–,"CCCCc1nc2c(N)nnc(OC(C)C)c2n1Cc1ccncc1 [Compound 76, 2-butyl-7-isopropoxy-1-(pyridin-4-ylmethyl)-1H-imidazo[4,5-d]pyridazin-4-amine 2,2,2-trifluoroacetate]"
6.40,6.69,–,–,"CCCSc1nc2c(N)nnc(OC(C)C)c2n1Cc1ccc(CN)cc1 [Compound 161, 3-[[4-(aminomethyl)phenyl]methyl]-4-isopropoxy-2-propylsulfanyl-imidazo[4,5-d]pyridazin-7-amine]"
< 4.70,6.93,–,–,"CCCCc1nc2c(N)nnc(OC(C)C)c2n1CC1CCCCC1 [Compound 81, 2-butyl-1-(cyclohexylmethyl)-7-isopropoxy-1H-imidazo[4,5-d]pyridazin-4-amine hydrochloride]"
< 4.70,6.11,–,–,"CCCCc1nc2c(N)nnc(-c3ccsc3)c2n1Cc1ccc(OC)cc1 [Compound 62, 2-butyl-1-(4-methoxybenzyl)-7-(thiophen-3-yl)-1H-imidazo[4,5-d]pyridazin-4-amine]"
–,–,18,35,"Cc1nc2c(N)nnc(OC(C)C)c2n1Cc1ccc(CN)cc1 [Compound 160, 1-(4-(aminomethyl)benzyl)-7-isopropoxy-2-methyl-1H-imidazo[4,5-d]pyridazin-4-amine]"
–,–,10,45,"CCCCc1nc2c(N)nnc(NCc3ccc(CN4CCN(C)CC4)cc3)c2n1C [Compound 91, 2-butyl-1-methyl-N7-(4-((4-methylpiperazin-1-yl)methyl)benzyl)-1H-imidazo[4,5-d]pyridazine-4,7-diamine]"
< 4.70,6.64,–,–,"CCCCc1nc2c(N)nnc(OC3CCOC3)c2n1Cc1ccc(OC)cc1 (stereo not drawn) [Compound 56, 2-butyl-1-(4-methoxybenzyl)-7-((tetrahydrofuran-3-yl)oxy)-1H-imidazo[4,5-d]pyridazin-4-amine]"
< 4.70,7.49,–,–,"CCCCc1nc2c(N)nnc(OC(C)C)c2n1C[C@H]1CC[C@H](CN)CC1 [Compound 19, 4-(aminomethyl)cyclohexyl)methyl)-2-butyl-7-isopropoxy-1H-imidazo[4,5-d]pyridazin-4-amine dihydrochloride]"
< 4.70,6.22,–,–,"CCCCc1nc2c(N)nnc(OC(C)C)c2n1CCCCCCN(C(C)=O)C1CS(=O)(=O)C1 [Compound 155, N-[6-(7-amino-2-butyl-4-isopropoxy-imidazo[4,5-d]pyridazin-3-yl)hexyl]-N-(1,1-dioxothietan-3-yl)acetamide hydrochloride salt]"
